# Data: publication PMC4721062, “Oxadiazole-2-oxides may have other functional targets, in addition to SjTGR, through which they cause mortality in Schistosoma japonicum” (Parasites & Vectors, 2016)
# Read-outs that look alike come from different tables or passages of the source.
# How the values were obtained:
# [1] = target: T1, recombinant SjTGR (Schistosoma japonicum, UniProt B5THG7); test: Inhibition of TrxR activity of recombinant SjTGR (DTNB assay); format: biochemical; conditions: 50 nM SjTGR, 1 mM NADPH, 15 min preincubation, DTNB reduction; for IC50: read-out: IC50 of SjTGR
# T1 sequence (B5THG7 1-596): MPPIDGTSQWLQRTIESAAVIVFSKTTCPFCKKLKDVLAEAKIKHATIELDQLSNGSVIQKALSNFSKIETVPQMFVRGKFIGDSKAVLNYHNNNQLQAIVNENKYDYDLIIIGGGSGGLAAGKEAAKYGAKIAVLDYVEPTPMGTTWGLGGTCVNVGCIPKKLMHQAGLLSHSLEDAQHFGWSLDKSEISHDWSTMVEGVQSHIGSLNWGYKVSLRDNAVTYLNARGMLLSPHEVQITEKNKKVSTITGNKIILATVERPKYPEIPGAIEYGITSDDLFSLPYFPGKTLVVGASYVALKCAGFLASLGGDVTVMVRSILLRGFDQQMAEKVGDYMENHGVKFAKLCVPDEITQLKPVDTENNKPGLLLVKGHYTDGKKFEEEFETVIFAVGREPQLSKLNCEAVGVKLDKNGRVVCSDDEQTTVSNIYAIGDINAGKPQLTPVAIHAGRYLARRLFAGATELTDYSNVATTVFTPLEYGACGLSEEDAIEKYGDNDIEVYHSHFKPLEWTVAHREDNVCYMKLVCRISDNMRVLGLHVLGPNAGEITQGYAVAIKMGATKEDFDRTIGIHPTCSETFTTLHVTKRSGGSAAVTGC
# Experimental: The purified recombinant SjTGR proteins were produced according to the method described by Song et al.. The inhibition of TrxR activity by the recombinant SjTGR was performed as reported by Rai et al.. Briefly, 50 nM SjTGR and 1 mM NADPH were incubated with different concentrations of oxadiazole-2-oxides (2, 4, 6, 10, 20 μM) for 15 min at room temperature. Then, potassium phosphate buffer (pH 7.4) containing 10 mM EDTA, 100 μM NADPH, and 3 mM DTNB was added to start the reaction. The increase of absorbance at 412 nm was monitored during the first 2 min. All assays were done in triplicate.
# 50 nM SjTGR and 1 mM NADPH were incubated with different concentrations of oxadiazole-2-oxides (2, 4, 6, 10, 20 μM) for 15 min at room temperature. Then, potassium phosphate buffer (pH 7.4) containing 10 mM EDTA, 100 μM NADPH, 3 mM DTNB was added to start the reaction. The increase in absorbance at 412 nm was monitored during the first 2 min. All assays were done in triplicate. Results shown are the mean ± SD (n = 3)
# [2] = test system: juvenile S. japonicum; test: microbe, parasite or virus in culture; format: cell-based; conditions: for Killing activity 24hr / Killing activity 48hr / Killing activity 72hr: 10 μM
# Experimental: Infected Oncomelania hupensis, provided by the Department of Snail Biology, Jiangsu Institute of Parasitic Diseases, were incubated at 25–28 °C, under illumination, for 2 h to hatch S. japonicum cercariae. The cercariae were collected from the water surface with clean cover glass and placed into a centrifuge tube using pre cooled RPMI 1640. Centrifugation was performed for 1 min at 1500 rpm, and then the steps above were repeated. After centrifugation, the supernatant solution was removed. The cercariae at the bottom were washed twice and resuspended with RPMI 1640. Approximately 20–30 cercariae (1 mL of the resuspension medium) were added to one well in a 24-well culture plate. They were incubated overnight at 37 °C with 5 % CO2. The survival rates and number of tails shed were observed under an inverted microscope. Cercariae that had shed their tails were used as juvenile S. japonicum.
# 20–30 juvenile worms were transferred into each well of a 24-well culture plate, containing 2 mL RPMI 1640 medium, 20 mM HEPES, 100 IU/mL penicillin, […] streptomycin and 10 % fetal bovine serum. Then, oxadiazole-2-oxides (2, 5, 10, and 50 μM), diluted with the RPMI 1640 medium, were added to their allocated wells. The worms in the negative control wells were treated with equal volumes of RPMI 1640 or DMSO and worms treated with AS were observed as positive controls. The juvenile worms’ survival rates were observed under an inverted phase contrast microscope (Leica, Wetzlar, Germany) at 24, 48 and 72 h. Parasite death was defined as an unclear internal structure of the juvenile worms, with incomplete tegument and contents overflowing radially, or unclear internal structure with complete tegument, but having no motor activity during 1 min of continuous observation. All assays were repeated three times.
# ^b Data collected by visual examination of worm movement and shape; % D = The number of worms dead / The total number of worms observed, and worms dead judged by unclear internal structure of juvenile worms with uncompleted tegument, and contents overflowing radially, or unclear internal structure with complete tegument, but having no motor activity during 1 min of continuous observation. The data presented are the average of three independent experiments.
# [3] = test system: adult S. japonicum; test: microbe, parasite or virus in culture; format: cell-based; conditions: for killing at 25 µM / killing at 50 µM / killing at 100 µM / mortality at 25 µM: Schistosoma japonicum; for mortality at 25 µM: read-out: Mortality of adult worms
# Source text: ICR mice (20–22 g), were obtained from the Shanghai Sub-Center of Experimental Animals, Chinese Academy of Sciences. They were maintained at the Department of Experimental Animals, Jiangsu Institute of Parasitic Diseases. To infect each mouse, its abdominal skin was exposed to 50 S. japonica cercariae. All of the mice were executed to collect S. japonica adult worms, through portal vein perfusion, 35 days post-infection. The adult S. japonica collected were washed with RPMI 1640 medium and then kept in RPMI 1640 medium (pH 7.5) with HEPES 20 mM, penicillin (100 IU/mL), streptomycin ([…]) and 10 % fetal bovine serum. Then, two pairs of adult worms were transferred into each well of a 24-well culture plate, with 2 mL of the same medium. The worms were cultured at 37 °C in a humid atmosphere with 5 % CO2.
# Adult worms were cultured in a 24-well culture plate for 30–60 min at 37 °C, in a humid atmosphere with 5 % CO2. Then, oxadiazole-2-oxides at different concentrations (10, 25, 50, 100 μM) were added. Equal volumes of RPMI 1640 or DMSO were applied as negative controls, while PZQ was applied as a positive control. The adult worm mobility and parasite survival rates were monitored using an inverted phase contrast microscope, at 24, 48 and 72 h. Parasite death was defined as there being no motor activity during 2 min of continuous observation, and morphological and tegumental alterations. All assays were repeated three times.
# ^b Data collected by visual examination of worm movement and shape; n.e. […] The data presented are the average of three independent experiments.
# [4] = Schistosoma japonicum, 24 h, read-out: Killing activity 24hr
# [5] = Schistosoma japonicum, 48 h, read-out: Killing activity 48hr
# [6] = Schistosoma japonicum, 72 h, read-out: Killing activity 72hr
# [7] = 24 h, read-out: Killing activity 24hr
# [8] = 48 h, read-out: Killing activity 48hr
# [9] = 72 h, read-out: Killing activity 72hr
smiles,measurement,setting,value
N#Cc1c(-c2ccc(OCC(=O)c3ccccc3)cc2)no[n+]1[O-] [Compound 17],IC50 of SjTGR,[1],did not inhibit
same,IC50,[1],> 20 µM
same,mortality at 50 µM,"[2]; Schistosoma japonicum, 24 h, read-out: Mortality of juvenile worms",< 30%
same,killing at 2 µM,"[2]; Schistosoma japonicum, juvenile worms, 2 μM, 24 h, read-out: Killing activity 24hr",28.1%
same,killing at 2 µM,"[2]; Schistosoma japonicum, juvenile worms, 2 μM, 48 h, read-out: Killing activity 48hr",37.5%
same,killing at 2 µM,"[2]; Schistosoma japonicum, juvenile worms, 2 μM, 72 h, read-out: Killing activity 72hr",46.9%
same,killing at 5 µM,"[2]; Schistosoma japonicum, juvenile worms, 5 μM, 24 h, read-out: Killing activity 24hr",29.2%
same,killing at 5 µM,"[2]; Schistosoma japonicum, juvenile worms, 5 μM, 48 h, read-out: Killing activity 48hr",41.7%
same,killing at 5 µM,"[2]; Schistosoma japonicum, juvenile worms, 5 μM, 72 h, read-out: Killing activity 72hr",50%
same,killing at 50 µM,"[2]; Schistosoma japonicum, juvenile worms, 50 μM, 24 h, read-out: Killing activity 24hr",45.8%
same,killing at 50 µM,"[2]; Schistosoma japonicum, juvenile worms, 50 μM, 48 h, read-out: Killing activity 48hr",60.4%
same,killing at 50 µM,"[2]; Schistosoma japonicum, juvenile worms, 50 μM, 72 h, read-out: Killing activity 72hr",72.9%
same,Killing activity 24hr,"[2]; juvenile worms, 24 h",40.0%D
same,Killing activity 48hr,"[2]; juvenile worms, 48 h",48.6%D
same,Killing activity 72hr,"[2]; juvenile worms, 72 h",54.3%D
same,killing at 25 µM,"[3]; adult worms, 25 μM, 72 h, read-out: Killing activity 72hr",62.5%
same,killing at 50 µM,"[3]; adult worms, 50 μM, 48 h, read-out: Killing activity 48hr",40%
same,killing at 50 µM,"[3]; adult worms, 50 μM, 72 h, read-out: Killing activity 72hr",87.5%
same,killing at 100 µM,"[3]; adult worms, 100 μM, 48 h, read-out: Killing activity 48hr",57.1%
same,killing at 100 µM,"[3]; adult worms, 100 μM, 72 h, read-out: Killing activity 72hr",85.7%
same,Killing activity 24hr,"[3]; adult worms, 10 μM, 24 h",n.e.
same,Killing activity 48hr,"[3]; adult worms, 10 μM, 48 h",n.e.
same,Killing activity 72hr,"[3]; adult worms, 10 μM, 72 h",50.0%D
same,Killing activity 24hr,"[3]; adult worms, 25 μM, 24 h",n.e.
same,Killing activity 48hr,"[3]; adult worms, 25 μM, 48 h",n.e.
same,Killing activity 24hr,"[3]; adult worms, 50 μM, 24 h",n.e.
same,Killing activity 24hr,"[3]; adult worms, 100 μM, 24 h",sluggish
same,Mortality of adult worms,"[3]; adult worms, 100 μM, 24 h",did not cause death
CC(C)CCOc1ccc(-c2no[n+]([O-])c2C#N)cc1 [Compound 18],IC50 of SjTGR,[1],did not inhibit SjTGR
same,IC50,[1],> 20 µM
same,killing at 2 µM,[2]; [4],24.1%
same,killing at 5 µM,[2]; [4],33.8%
same,killing at 50 µM,[2]; [4],52.4%
same,killing at 2 µM,[2]; [5],29.9%
same,killing at 5 µM,[2]; [5],40%
same,killing at 50 µM,[2]; [5],88.1%
same,killing at 2 µM,[2]; [6],35.6%
same,killing at 5 µM,[2]; [6],47.5%
same,killing at 50 µM,[2]; [6],100%
same,Killing activity 24hr,"[2]; juvenile worms, 24 h",36.6%D
same,Killing activity 48hr,"[2]; juvenile worms, 48 h",42.7%D
same,Killing activity 72hr,"[2]; juvenile worms, 72 h",42.7%D
same,killing at 25 µM,[3]; [7],75%
same,killing at 50 µM,[3]; [7],100%
same,killing at 100 µM,[3]; [7],100%
same,mortality at 25 µM,[3]; 24 h,> 75%
same,killing at 25 µM,[3]; [8],87.5%
same,killing at 50 µM,[3]; [8],100%
same,killing at 100 µM,[3]; [8],100%
same,killing at 25 µM,[3]; [9],100%
same,killing at 50 µM,[3]; [9],100%
same,killing at 100 µM,[3]; [9],100%
same,mortality at 25 µM,[3]; 72 h,100%
same,Killing activity 24hr,"[3]; adult worms, 10 μM, 24 h",16.7%D
same,Killing activity 48hr,"[3]; adult worms, 10 μM, 48 h",16.7%D
same,Killing activity 72hr,"[3]; adult worms, 10 μM, 72 h",50.0%D
